Laboratory results from patent US20250092353A1, “COMMENSAL FUNGUS AND USES THEREOF” (YEDA RESEARCH AND DEVELOPMENT CO. LTD., priority 2022, published 2025).

What was measured:
Th17 cells = test: RORγt+ Th17 cells in mesenteric and peripheral lymph nodes of colonized mice; assay type: in vivo; conditions: 5 weeks colonization
Description: FIGS. 4A-4F include graphs showing humoral and cellular immune responses to C. albicans and Kazachstania sp. (4A) Flow cytometric analysis of myeloid blood cell compartment of mice 4 weeks colonized with C. albicans or K. weizmannii. Neutrophils, classical and non-classical monocytes are defined as Ly6G+CD 115−, Ly6C+CD 115+, and […], respectively. N=8-21 mice, pooled from 3 independent experiments. Gating strategy, left, results, right. (4B) Flow cytometric analysis of humoral anti-fungal reactivity. Gating strategy for the determination of serum immunoglobulin binding to cultured C. albicans or K. weizmannii. (4C) Anti-C. albicans and K. weizmannii IgA and IgG serum reactivity of single-colonized animals, measured as shown in (4B). Note that most but not all animals harbor cross-reactive sera. (4D) Representative gating strategy of RORγt+ T cells (left); percentage of RORγt+ cells among TCRβ CD4+ T cells 5 weeks upon C. albicans or K. weizmannii colonization, n=3-5 mice per group, 3 independent experiments (right). […] EC damage was assessed using the LDH assay as described in (Allert et al., 2018). […]
Methods adhered to published guidelines (Cossarizza et al., 2019). Flow cytometry samples were recorded on BD LSR Fortessa 4 lasers or Cytek Aurora followed by data analysis using the FlowJo software (Treestar).

[1] = Biolog Phenotype MicroArrays for chemical sensitivity (PM21-PM25); assay type: cell-based; conditions: compared to C. albicans; normalized AUC of growth
Description: FIGS. 2A-2F include micrographs, graphs, a plot, and a curve showing in vitro culture characteristics of K. weizmannii. (2A) Representative images of C. albicans and K. weizmannii in liquid media in presence of filament-inducing conditions, n=3 independent experiments. (2B) A graph showing largest differences in growth between K. weizmannii and C. albicans with different carbon sources, based on a z-score > or <2. Differences were calculated using the normalized area under the curve (AUC) of K. weizmannii and C. albicans. Normalization of the AUC are based on the growth of both species with glucose. Size of data points corresponds to the normalized AUC of K. weizmannii with the corresponding carbon source. All measurements were done using the Biolog Phenotype MicroArrays in biological triplicates. […] The data points are color-coded according to the different types of carbon sources. (2C) A graph showing the largest differences in growth between K. weizmannii and C. albicans with different nitrogen sources, based on a z-score greater than or less than 2. Differences were calculated using AUC of K. weizmannii and C. albicans and normalized based on the growth of both species with glutamine. […] GFP expressing C. albicans was detected by flowcytometry to discriminate between fungi, n=2 independent experiments.

[2] = Fungal-mediated pathology in cortisone 21-acetate immunosuppressed colonized mice; assay type: in vivo; conditions: cortisone 21-acetate 225 mg/kg s.c. every other day
Description: Stably fungal-colonized mice were 5×s.c injected with 225 mg kg-1 with cortisone 21-acetate, following the scheme of injection every other day as described previously (Solis and Filler, 2012). Mice were monitored for weight loss. Following sacrifice, organs and feces were collected for histological examination, flow cytometry and fungal cultivations). If the weight dropped […], mice were sacrificed according to IACUC protocol.
Mice were euthanized and intestines, kidneys and tongue were excised and fixed overnight in 4% paraformaldehyde at 4° C. Paraffin embedding and sectioning was performed by the institutional histology unit. For immunohistochemistry of gut samples, slides were deparaffinized by 2 washes of Xylene followed by 100%, 96%, 70% EtOH and three washes with PBS. Slides were incubated for 30 minutes in 1% hydrogen peroxide in PBS at room temperature in the dark. After washing three times in PBS, slides were boiled for 10 minutes in Citric acid buffer pH 6.0 (10 mM citric acid and 0.05% Tween-20 in DDW), then washed with PBS three times. […] For histopathology of typical tongue or kidney fungal lesions in the mouse model of immunosuppression, paraffin sections were stained with periodic acid-Schiff (PAS) or H&E and slides were captured using a Panoramic SCAN II (3DHISTECH) and analyzed using CaseViewer software (3DHISTECH).

For Kazachstania weizmannii [K. weizmannii], the Th17 cell expansion (Th17 cells) was “no Th17 cell expansion was observed”, the “resistance to chemical inhibitors, azoles” value [1] was “relative resistance to propriconazole and fucinazole” and the “sensitivity to chemical inhibitors, chlorides and bromides” value [1] was “more sensitive to chlorides and bromides”. For the same substance, the “weight loss and fungal spread” value [2] was “neither weight loss nor evidence of fungal spread”.
